Common to all, as to format: functional, cell-based
Assay [1] concerns C6-BU-1. As to the kind of experiment: IKCa channel inhibition was determined measuring ionomycin-induced Rb+ efflux of pre loaded rat C6BU1 glioma cell in comparison with Nifedipine; NA=Inactive at 1000 nM.
Assay [2] has as its system C6-BU-1. As to the kind of experiment: IKCa channel inhibition was determined measuring ionomycin-induced Rb+ efflux of pre loaded rat C6BU1 glioma cell in comparison with Nifedipine.
Assay [3] deals with C6-BU-1. Nature of the assay: IKCa channel inhibition was determined at 72% residual Rb+ efflux of pre loaded rat C6BU1 glioma cell in comparison with Nifedipine.

The structures appear in SMILES notation.

`CCCCOC(=O)C1=C(C)OC(C)=C(C(=O)OCCCC)C1c1ccc(Cl)cc1`: the IC50 (as a rule, the concentration that gives 50% inhibition) in the assay on C6-BU-1 [1] is “Not Active”.
`COC(=O)C1=C(C)OC(C)=C(C(=O)OC)C1c1ccccc1Cl` came in with an IC50 in the assay on C6-BU-1 [2] of 100 nM.
In the assay on C6-BU-1 [2], `COC(=O)C1=C(C)OC(C)=C(C(=O)OC)C1c1ccc(Cl)cc1` returned an IC50 of 24 nM.
On to `COC(=O)C1=C(C)OC(C)=C(C(=O)OC)C1c1cccc(Cl)c1`, for which half-maximal inhibition with C6-BU-1 [2] (IC50) required 26 nM.
For `COC(=O)C1=C(C)OC(C)=C(C(=O)OC)C1c1ccccc1`, in the assay with C6-BU-1 [2], the IC50 is 160 nM.
On the same count and under the same terms, with `CCOC(=O)C1=C(C)OC(C)=C(C(=O)OCC)C1c1ccc(Cl)cc1` the figure was 150 nM.
As for `COC(=O)C1=C(C)OC(C)=C(C(=O)OC)C1c1ccc(Cl)c(C(F)(F)F)c1`, the midpoint of inhibition in the assay on C6-BU-1 [2], the IC50, lay at 24 nM. This IC50 lies about 6.2-fold lower than the previous one.
Same read-out and setting: the same measure for `CC(=O)C1=C(C)OC(C)=C(C(C)=O)C1c1ccc(Cl)cc1`: 220 nM.
For `CCCOC(=O)C1=C(C)OC(C)=C(C(=O)OCCC)C1c1ccc(Cl)cc1`, the IC50 in the assay on C6-BU-1 [3] was 1000 nM. This lies in the single-digit micromolar range.
`CCOC(=O)C1=C(C)OC(C)=C(C(=O)OC)C1c1ccc(Cl)cc1` (racemic) yielded a concentration for half-maximal inhibition (IC50) with C6-BU-1 [2] of 35 nM.
As to `COC(=O)C1=C(C)OC(C)=C(C(C)=O)C1c1ccc(Cl)cc1` (racemic), the midpoint of inhibition in the assay on C6-BU-1 [2], the IC50, lay at 75 nM.
Same read-out and setting: the same measure for `COC(=O)C1=C(C)OC(C)=C(C(C)=O)C1c1ccc(Cl)c(C(F)(F)F)c1` (racemic): 8 nM; for `COC(=O)C1=C(C)NC(C)=C(C(=O)OC)C1c1ccccc1[N+](=O)[O-]` [NIFEDIPINE]: 1000 nM.

Values taken from ChEMBL document CHEMBL1144949, “4-Phenyl-4H-pyrans as IK(Ca) channel blockers” (Bioorg Med Chem Lett, 2003).
